Results on 21 molecules are retold here after US9670227B2, “Thienopyrimidine derivatives, a process for their preparation and pharmaceutical compositions containing them” (LES LABORATOIRES SERVIER, priority 2013, dated 2017).

Mcl-1 protein, sequence (Q07820 whole entry): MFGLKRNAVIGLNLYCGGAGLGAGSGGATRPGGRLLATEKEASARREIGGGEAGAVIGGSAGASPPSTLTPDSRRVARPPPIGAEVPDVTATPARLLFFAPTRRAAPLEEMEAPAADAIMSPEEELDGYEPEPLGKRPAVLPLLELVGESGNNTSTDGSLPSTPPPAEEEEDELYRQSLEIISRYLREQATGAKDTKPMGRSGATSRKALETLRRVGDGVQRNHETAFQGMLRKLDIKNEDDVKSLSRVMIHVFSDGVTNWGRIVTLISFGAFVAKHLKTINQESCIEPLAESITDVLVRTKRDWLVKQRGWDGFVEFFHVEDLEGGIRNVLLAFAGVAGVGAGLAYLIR

The target of the first test is Mcl-1 protein (UniProtKB primary accession number: Q07820) (Homo sapiens, UniProt Q07820). The test can be described thus: Inhibition of Mcl-1 by fluorescence polarisation, Method 1. Type of test: binding. As to conditions: fluorescence polarisation test; Method 1, or Method 2 where the value is underlined (underlining not visible); read-out: IC50 (M) Mcl-1 FP. In short, it runs like this:
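FP competition, 11-point compound titration in 5% final DMSO; protein and labelled probe at 5 nM and 1 nM final in HEPES/NaCl/Tween 20 buffer, pH 7.4.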
In general, IC50 refers to the concentration needed to halve the response being measured. As to `Cc1c(-c2c(-c3cccc(F)c3F)sc3ncnc(OC(Cc4ccccc4OCc4ccnn4C(C)(C)C)C(=O)OCC(=O)N(C)C)c23)ccc(OCCN(C)C)c1Cl` [Example 825, 2-(dimethylamino)-2-oxoethyl (2R)-3-{2-[(1-tert-butyl-1H-pyrazol-5-yl)methoxy]phenyl}-2-{[(5Sa)-5-{3-chloro-4-[2-(dimethylamino)ethoxy]-2-methylphenyl}-6-(2,3-difluorophenyl)thieno[2,3-d]pyrimidin-4-yl]oxy}propanoate], the IC50 came out at 5.82e-07 M.

Staying with this test, now noted: fluorescence polarisation test; Method 2 values are underlined in the patent (underlining not visible here); read-out: IC50 (M) Mcl-1 FP.
As to `Cc1c(-c2c(-c3ccc(F)cc3)sc3ncnc(OC(Cc4ccccc4OCc4cncn4C)C(=O)O)c23)ccc(OCCN2CCN(C)CC2)c1Cl` [Example 92, (2R)-2-{[(5Sa)-5-{3-chloro-2-methyl-4-[2-(4-methylpiperazin-1-yl)ethoxy]phenyl}-6-(4-fluorophenyl)thieno[2,3-d]pyrimidin-4-yl]oxy}-3-{2-[(1-methyl-1H-imidazol-5-yl)methoxy]phenyl}propanoic acid], the IC50 was determined as 1.2e-08 M. With `COc1ncc(Br)c(COc2ccccc2C[C@@H](Oc2ncnc3sc(-c4ccc(F)cc4)c(-c4ccc(OCCN5CCN(C)CC5)c(Cl)c4C)c23)C(=O)O)n1` [Example 99, (2R)-3-{2-[(5-bromo-2-methoxypyrimidin-4-yl)methoxy]phenyl}-2-{[(5Sa)-5-{3-chloro-2-methyl-4-[2-(4-methylpiperazin-1-yl)ethoxy]phenyl}-6-(4-fluorophenyl)thieno[2,3-d]pyrimidin-4-yl]oxy}propanoic acid], the IC50 was found to be 2e-08 M. `COc1ncc(-c2ccsc2)c(COc2ccccc2CC(Oc2ncnc3sc(-c4ccc(F)cc4)c(-c4ccc(OCCN5CCN(C)CC5)c(Cl)c4C)c23)C(=O)O)n1` [Example 100, (2R)-2-{[(5Sa)-5-{3-chloro-2-methyl-4-[2-(4-methylpiperazin-1-yl)ethoxy]phenyl}-6-(4-fluorophenyl)thieno[2,3-d]pyrimidin-4-yl]oxy}-3-(2-{[2-methoxy-5-(thiophen-3-yl)pyrimidin-4-yl]methoxy}phenyl)propanoic acid]: the IC50 is 1.2e-08 M. On the same count and under the same terms, under `COCCc1nccc(COc2ccccc2CC(Oc2ncnc3sc(-c4ccc(F)o4)c(-c4ccc(OCCN5CCN(C)CC5)c(Cl)c4C)c23)C(=O)O)n1` [Example 174, (2R)-2-{[(5Sa)-5-{3-chloro-2-methyl-4-[2-(4-methylpiperazin-1-yl)ethoxy]phenyl}-6-(5-fluorofuran-2-yl)thieno[2,3-d]pyrimidin-4-yl]oxy}-3-(2-{[2-(2-methoxyethyl)pyrimidin-4-yl]methoxy}phenyl)propanoic acid] stands 2.3e-09 M; under `CCCCn1nccc1COc1ccccc1CC(Oc1ncnc2sc(-c3ccc(F)o3)c(-c3ccc(OCCN4CCN(C)CC4)c(Cl)c3C)c12)C(=O)O` [Example 188, (2R)-3-{2-[(1-butyl-1H-pyrazol-5-yl)methoxy]phenyl}-2-{[(5Sa)-5-{3-chloro-2-methyl-4-[2-(4-methylpiperazin-1-yl)ethoxy]phenyl}-6-(5-fluorofuran-2-yl)thieno[2,3-d]pyrimidin-4-yl]oxy}propanoic acid], 6.4e-09 M. With `Cc1c(-c2c(-c3ccc(F)o3)sc3ncnc(OC(Cc4ccccc4OCc4ccnc(N5CCOCC5)n4)C(=O)O)c23)ccc(OCCN2CCN(C)CC2)c1Cl` [Example 175, (2R)-2-{[(5Sa)-5-{3-chloro-2-methyl-4-[2-(4-methylpiperazin-1-yl)ethoxy]phenyl}-6-(5-fluorofuran-2-yl)thieno[2,3-d]pyrimidin-4-yl]oxy}-3-(2-{[2-(morpholin-4-yl)pyrimidin-4-yl]methoxy}phenyl)propanoic acid], the half-maximal inhibitory concentration (IC50) is 3.9e-09 M.

The test is the same for the next values; noted with them: fluorescence polarisation; Method 1, or Method 2; read-out: IC50 (M) Mcl-1 FP.
For the molecule `COc1ccccc1CC(Oc1ncnc2sc(-c3cccc(OC(F)(F)F)c3F)c(-c3ccc(OCCN4CCN(C)CC4)c(Cl)c3C)c12)C(=O)O` [Example 562, (2R)-2-[((5Sa)-5-{3-chloro-2-methyl-4-[2-(4-methylpiperazin-1-yl)ethoxy]phenyl}-6-[2-fluoro-3-(trifluoromethoxy)phenyl]thieno[2,3-d]pyrimidin-4-yl)oxy]-3-(2-methoxyphenyl)propanoic acid], the concentration for half-maximal inhibition (IC50) worked out at 5.1e-07 M.

Regarding `CCCCn1nccc1COc1ccccc1CC(Oc1ncnc2sc(C#N)c(-c3ccc(OCCN4CCN(C)CC4)c(Cl)c3C)c12)C(=O)O` [Example 614, (2R)-3-{2-[(1-butyl-1H-pyrazol-5-yl)methoxy]phenyl}-2-[((5Sa)-5-{3-chloro-2-methyl-4-[2-(4-methylpiperazin-1-yl)ethoxy]phenyl}-6-cyanothieno[2,3-d]pyrimidin-4-yl)oxy]propanoic acid], the half-maximal inhibitory concentration (IC50) turned out to be 8.4e-09 M. The same measure, in the same setting: with `CC#Cc1sc2ncnc(OC(Cc3ccccc3OC)C(=O)O)c2c1-c1cc(N2CCN(C)CC2)c(OC)c(Cl)c1C` [Example 473, (2R)-2-({(5Sa)-5-[3-chloro-4-methoxy-2-methyl-5-(4-methylpiperazin-1-yl)phenyl]-6-(prop-1-yn-1-yl)thieno[2,3-d]pyrimidin-4-yl}oxy)-3-(2-methoxyphenyl)propanoic acid] the figure was 5e-08 M. The same measure, in the same setting: under `CC#Cc1sc2ncnc(OC(Cc3ccccc3OC)C(=O)O)c2c1-c1ccc(OCCN2CCN(C)CC2)c(Cl)c1C` [Example 572, (2R)-2-{[(5Sa)-5-{3-chloro-2-methyl-4-[2-(4-methylpiperazin-1-yl)ethoxy]phenyl}-6-(prop-1-yn-1-yl)thieno[2,3-d]pyrimidin-4-yl]oxy}-3-(2-methoxyphenyl)propanoic acid] stands 1.9e-08 M.

As to `CC#Cc1sc2ncnc(OC(Cc3ccccc3)C(=O)O)c2c1-c1ccc(OCCN2CCN(C)CC2)c(Cl)c1C` [Example 519, (2R)-2-{[(5Sa)-5-{3-chloro-2-methyl-4-[2-(4-methylpiperazin-1-yl)ethoxy]phenyl}-6-(prop-1-yn-1-yl)thieno[2,3-d]pyrimidin-4-yl]oxy}-3-phenylpropanoic acid], the half-maximal inhibitory concentration (IC50) was found to be 2.3e-08 M. For the molecule `Cc1c(-c2c(-c3ccccc3)sc3ncnc(OC(Cc4ccccc4)C(=O)O)c23)ccc(OCCN2CCN(C)CC2)c1Cl` [Example 502, (2R)-2-[((5Sa)-5-{3-chloro-2-methyl-4-[2-(4-methylpiperazin-1-yl)ethoxy]phenyl}-6-phenylthieno[2,3-d]pyrimidin-4-yl)oxy]-3-phenylpropanoic acid], the IC50 is 1.9e-08 M. For `Cc1c(-c2c(-c3ccc(F)cc3)sc3ncnc(OC(Cc4ccccc4OCC(F)(F)F)C(=O)O)c23)ccc(OCCN2CCOCC2)c1Cl` [Example 657, (2R)-2-{[(5Sa)-5-{3-chloro-2-methyl-4-[2-(morpholin-4-yl)ethoxy]phenyl}-6-(4-fluorophenyl)thieno[2,3-d]pyrimidin-4-yl]oxy}-3-[2-(2,2,2-trifluoroethoxy)phenyl]propanoic acid], the IC50 stood at 2.1e-08 M. As for `CCc1sc2ncnc(OC(Cc3ccccc3)C(=O)O)c2c1-c1ccc(OCCOCCOC)c(Cl)c1C` [Example 425, (2R)-2-[((5Sa)-5-{3-chloro-4-[2-(2-methoxyethoxy)ethoxy]-2-methylphenyl}-6-ethylthieno[2,3-d]pyrimidin-4-yl)oxy]-3-phenylpropanoic acid], the 50% inhibitory concentration (IC50) was determined as 9.6e-09 M. Same read-out and setting: with `COc1ccccc1-c1nccc(COc2ccccc2CC(Oc2ncnc3sc(C#CCCN4CCOCC4)c(-c4ccc(OCCN5CCN(C)CC5)c(Cl)c4C)c23)C(=O)O)n1` [Example 785, (2R)-2-[((5Sa)-5-{3-chloro-2-methyl-4-[2-(4-methylpiperazin-1-yl)ethoxy]phenyl}-6-[4-(morpholin-4-yl)but-1-yn-1-yl]thieno[2,3-d]pyrimidin-4-yl)oxy]-3-(2-{[2-(2-methoxyphenyl)pyrimidin-4-yl]methoxy}phenyl)propanoic acid] the figure was 3.85e-09 M; with `CCc1sc2ncnc(OC(Cc3ccccc3)C(=O)O)c2c1-c1ccc(OCCOC)c(Cl)c1C` [Example 424, (2R)-2-({(5Sa)-5-[3-chloro-4-(2-methoxyethoxy)-2-methylphenyl]-6-ethylthieno[2,3-d]pyrimidin-4-yl}oxy)-3-phenylpropanoic acid], 9.6e-08 M. Turning to `COc1ccccc1-n1ccc(COc2ccccc2CC(Oc2ncnc3sc(-c4ccc(F)cc4)c(-c4ccc(OCCN5CCN(C)CC5)c(Cl)c4C)c23)C(=O)O)n1` [Example 737, (2R)-2-{[(5Sa)-5-{3-chloro-2-methyl-4-[2-(4-methylpiperazin-1-yl)ethoxy]phenyl}-6-(4-fluorophenyl)thieno[2,3-d]pyrimidin-4-yl]oxy}-3-(2-{[1-(2-methoxyphenyl)-1H-pyrazol-3-yl]methoxy}phenyl)propanoic acid], the IC50 was 1.43e-08 M. `CCc1sc2ncnc(OC(Cc3ccccc3OCCOC)C(=O)O)c2c1-c1ccc(OCCN2CCN(C)CC2)c(Cl)c1C` [Example 457, (2R)-2-[((5Sa)-5-{3-chloro-2-methyl-4-[2-(4-methylpiperazin-1-yl)ethoxy]phenyl}-6-ethylthieno[2,3-d]pyrimidin-4-yl)oxy]-3-[2-(2-methoxyethoxy)phenyl]propanoic acid]: the IC50 was found to be 3.4e-08 M. The same measure, in the same setting: under `Cc1c(-c2c(-c3cnn(C)c3)sc3ncnc(OC(Cc4ccccc4)C(=O)O)c23)ccc(OCCN2CCN(C)CC2)c1Cl` [Example 513, (2R)-2-{[(5Sa)-5-{3-chloro-2-methyl-4-[2-(4-methylpiperazin-1-yl)ethoxy]phenyl}-6-(1-methyl-1H-pyrazol-4-yl)thieno[2,3-d]pyrimidin-4-yl]oxy}-3-phenylpropanoic acid] stands 3.7e-07 M; under `C=Cc1sc2ncnc(OC(Cc3ccccc3)C(=O)O)c2c1-c1cccc(Cl)c1C` [Example 721, (2R)-2-{[(5Sa)-5-(3-chloro-2-methylphenyl)-6-ethenylthieno[2,3-d]pyrimidin-4-yl]oxy}-3-phenylpropanoic acid], 7.6e-08 M.
